The subject of series [1] is mean arterial blood pressure response to angiotensin I. Description: Intravenous effectiveness: blood pressure response to angiotensin I in anesthetized rats. The class given is in vivo. The conditions noted are these: for Blood Pressure Response to 400 ng/kg of Angiotensin I: rat, 0.5 μmole/kg IV. On the procedure: Rats (190-290 g body weight) were fasted overnight and then anesthetized with intraperitoneal pentobarbital, 50-60 mg/kg. Tracheostomy was performed and the animals were ventilated mechanically. A cannula was inserted into a femoral vein for injection of angiotensin I, and a second cannula was inserted into a common carotid artery for direct measurement of arterial blood pressure. Heparin, 1,000 units, was injected via the femoral vein to prevent coagulation. Blood pressure was measured with a pressure transducer connected to a polygraph. The rats were injected with […] of angiotensin I in 20 μl of 0.9 g % NaCl, an amount of angiotensin I sufficient to raise mean arterial blood pressure by approximately 48 mm Hg.
After the responsiveness of a given rat to angiotensin I was established, the named compound at 0.5 μmole/kg (drug dissolved in 15 microliters of 0.9% NaCl) was given intravenously. At time intervals, the effects of 400 ng/kg of angiotensin I on mean arterial blood pressure were tested. Results are shown below:
Experiments were carried out using rats according to Example 30.

Series [2] addresses T1, human plasma angiotensin converting enzyme (Homo sapiens, UniProt P12821).
T1 construct: partially-purified human plasma angiotensin converting enzyme; from tissue; host or cells: human plasma
Put plainly: In vitro assay of inhibition of angiotensin converting enzyme. The class given is biochemical. The conditions noted are these: [3H]benzoyl-Gly-His-Leu 80 nM, pH 8.0, 37° C., 15 minutes, I50 approximates Ki. How it is done: Compounds of this invention were assayed through the following protocol: 25 microliters of buffer (0.05M Hepes buffer, pH 8.0, plus 0.1M NaCl and 0.75M Na2 SO4) or 25 microliters of an inhibitor in buffer was added to the bottom of a 7 ml liquid scintillation vial. To this was added 100 microliters of buffered substrate [S], [^3 H]benzoyl-Gly-His-Leu, 80 nM (25 Ci/mmole). The reaction was started by adding 100 microliters of partially-purified human plasma angiotensin converting enzyme, or 100 microliters of buffer alone. The concentration of enzyme [E] used was that required to hydrolyze 8-12% of substrate when incubated at 37° C. for 15 minutes. The scintillation vials and their contents were incubated at 37° C. for 15 minutes, and the reactions were stopped by adding 200 microliters of 0.5M HCl to each vial. The radioactive reaction product, [^3 H]benzoyl-Gly(hippuric acid), was separated from unhydrolyzed substrate by adding and mixing (by inversion) 3 ml of Ventrex Cocktail No. 1 (Ventrex Laboratories, Inc., Portland, Maine), a fluid disclosed in copending U.S. patent application Ser. No. 184,653, filed Sept. 6, 1980. Extractable ^3 H was quantified by liquid scintillation counting. Substrate, in c.p.m., was quantified by scintillation counting of a vial containing 100 μl of buffered substrate in 5 ml of RIAfluor (New England Nuclear). The reaction mixture containing al constituents except for inhibitor was termed the control (C). The reaction mixture lacking enzyme and inhibitor was called the blank (B). Reaction mixtures containing inhibitor (varied over the range of 10^-4 -10^-12 M) were called the test (T) reactions. Under the conditions of this assay, the reaction obeys first order enzyme kinetics, thus the concentration of inhibitor required to inhibit the rate of hydrolysis by half (I50) approximates the Ki value. The results were estimated by use of the formula: [formula] where C=control c.p.m.; B=blank c.p.m.; [S]=substrate c.p.m. The factor 100 converts fractional substrate utilization into percentage utilization,and 1/15 minute corrects to percentage substrate utilization/minute. Thus, [E] is enzyme activity in percentage substrate utilization/minute. By substituting T for C, hydrolysis rates are computed for the test reaction mixtures. By comparing a given test rate against the control rate, the degree of inhibition can be computed.

A short description of series [3]: Loss of activity of aqueous SQ14225 solution on standing. The class given is physicochemical. The conditions noted are these: 1 mg per ml, pH of about 8, ambient conditions.
For series [4] the following is noted: cited from earlier work.

SMILES strings stand for the structures. Entries after “also recorded” stand apart in the source; their conditions may differ.

T1 sequence (P12821 30-1232 limits assumed): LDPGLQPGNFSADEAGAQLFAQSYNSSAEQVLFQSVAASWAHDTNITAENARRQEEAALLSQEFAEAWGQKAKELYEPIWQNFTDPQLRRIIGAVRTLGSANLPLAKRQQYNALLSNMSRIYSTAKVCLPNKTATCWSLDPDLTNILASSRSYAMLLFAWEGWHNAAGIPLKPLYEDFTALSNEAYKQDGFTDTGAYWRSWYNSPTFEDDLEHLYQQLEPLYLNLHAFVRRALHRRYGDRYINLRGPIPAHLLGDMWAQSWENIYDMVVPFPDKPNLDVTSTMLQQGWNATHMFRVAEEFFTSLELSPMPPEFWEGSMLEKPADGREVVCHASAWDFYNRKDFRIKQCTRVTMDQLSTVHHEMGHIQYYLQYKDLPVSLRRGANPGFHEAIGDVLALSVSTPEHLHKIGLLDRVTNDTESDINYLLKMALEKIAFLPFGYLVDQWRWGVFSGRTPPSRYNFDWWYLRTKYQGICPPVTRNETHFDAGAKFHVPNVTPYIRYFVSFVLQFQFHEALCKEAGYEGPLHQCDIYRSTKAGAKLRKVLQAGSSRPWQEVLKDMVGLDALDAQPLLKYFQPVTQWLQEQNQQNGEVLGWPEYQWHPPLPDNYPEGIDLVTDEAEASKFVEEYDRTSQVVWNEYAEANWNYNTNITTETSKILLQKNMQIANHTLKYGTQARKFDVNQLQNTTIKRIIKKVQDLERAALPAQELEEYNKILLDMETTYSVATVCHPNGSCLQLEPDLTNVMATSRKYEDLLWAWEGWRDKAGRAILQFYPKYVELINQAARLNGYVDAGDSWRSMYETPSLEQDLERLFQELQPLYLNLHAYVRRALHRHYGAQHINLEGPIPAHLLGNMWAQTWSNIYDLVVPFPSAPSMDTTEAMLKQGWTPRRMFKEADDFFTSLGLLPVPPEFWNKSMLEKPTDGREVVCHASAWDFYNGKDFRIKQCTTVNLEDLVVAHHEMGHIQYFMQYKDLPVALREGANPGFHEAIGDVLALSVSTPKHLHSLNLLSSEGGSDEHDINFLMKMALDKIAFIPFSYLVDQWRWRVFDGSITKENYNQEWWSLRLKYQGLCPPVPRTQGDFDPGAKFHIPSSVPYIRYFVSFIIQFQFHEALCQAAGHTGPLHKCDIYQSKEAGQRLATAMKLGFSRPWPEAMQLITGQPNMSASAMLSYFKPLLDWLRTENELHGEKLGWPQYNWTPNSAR

Consider `CC(N[C@@H](CCC(=O)Nc1ccccc1)C(=O)O)C(=O)N1CCC[C@H]1C(=O)O` (stereo partly drawn) [Example 26, N-[L-1-carboxy-3-(carbo-anilide)propyl]-Alanyl-L-Proline], for which the “Blood Pressure Response to 400 ng/kg of Angiotensin I” value (“Blood Pressure Response to 400 ng/kg” for short) in series [1] (5 min after administration) was 37 % of Control; in series [1] (10 min after administration), 37 % of Control; in series [1] (15 min after administration), 40 % of Control; in series [1] (20 min after administration), 40 % of Control; in series [1] (25 min after administration), 40 % of Control; in series [1] (30 min after administration), 35 % of Control. The “Blood Pressure Response to 400 ng/kg” value in series [1] (40 min after administration) was 35 % of Control; in series [1] (50 min after administration), 46 % of Control; in series [1] (60 min after administration), 46 % of Control; in series [1] (70 min after administration), 48 % of Control; in series [1] (80 min after administration), 52 % of Control; in series [1] (90 min after administration) it was 54 % of Control. Further, the “Blood Pressure Response to 400 ng/kg” value was 62.5 % of Control in series [1] (102 min after administration) and 42 % of Control in series [1] (+1 min after administration). Besides, the IC50 in series [2] is 5.2 nM; in series [2] (listed as N-[L-1-carboxy-3-(carboanilide)propyl]-D,L-Ala-L-Pro), roughly 1 nM.

`CC(N[C@@H](CCC(=O)Nc1ccc(I)cc1)C(=O)O)C(=O)N1CCC[C@H]1C(=O)O` (stereo partly drawn) [Example 27, N-[L-1-carboxy-3-(carbo-4-iodo-anilide)propyl]-Alanyl-L-Proline]: the “increase in intravenous effectiveness on removal of iodine” value in series [1] (de-iodo compound versus the 4-iodoanilide) is “three-fold”. The “Blood Pressure Response to 400 ng/kg” value in series [1] (5 min after administration) was 42 % of Control; in series [1] (10 min after administration), 46 % of Control; in series [1] (15 min after administration) it was 52 % of Control; in series [1] (20 min after administration) it was 60 % of Control; in series [1] (25 min after administration) it was 67 % of Control; in series [1] (30 min after administration) it was 71 % of Control. The “Blood Pressure Response to 400 ng/kg” value in series [1] (35 min after administration) was 71 % of Control; in series [1] (50 min after administration), 83 % of Control; in series [1] (60 min after administration), 92 % of Control; in series [1] (70 min after administration), 100 % of Control; in series [1] (80 min after administration) it was 104 % of Control; in series [1] (+1 min after administration) it was 33 % of Control. For the same molecule, the figures for the IC50 in series [2] and in series [2] (listed as N-[L-1-carboxy-3-(carbo-4-iodoanilide)propyl]-D,L-Ala-L-Pro) were 0.23 nM and roughly 1 nM, respectively.

For `CC(N[C@@H](CC(=O)N1CCCC1)C(=O)O)C(=O)N1CCC[C@H]1C(=O)O` (stereo partly drawn) [Example 28, N-[L-1-carboxy-2-(carbopyrrolide)ethyl]-Alanyl-L-Proline], the values for the IC50 in series [2] and in series [2] (listed as N-[L-1-carboxy-2-(carbopyrrolide)ethyl]-D,L-Ala-Pro) were 140 nM and roughly 100 nM, respectively.

Consider `C[C@H](CS)C(=O)N1CCC[C@H]1C(=O)O` [SQ14225, D-3-mercapto-2-methylpropanoyl-L-proline], for which the “activity of fresh aqueous solution on standing” value in series [3] is “becomes substantially less active upon standing for as little as 30 minutes”. For the same molecule, the renal biopsy findings entry in series [4] (13 patients treated with SQ14225, Hoorntje et al.) is reported as “evidence of immune complex deposition along the glomerular basement membranes”. The “adverse effects in man” value in series [4] (patients, Gavras et al.) is “occasional allergic reactions; also recorded: fevers and rashes”.

For orientation: IC50 means the point on the concentration scale where inhibition reaches its midpoint. High values mean weaker potency in that assay, low ones greater potency in that assay.

The record behind these values is patent US4766110A, “Novel complex amido and imido derivatives of carboxyalkyl peptides” (priority 1986, dated 1988).
